One assay has as its target SiaT from S. aureus (Staphylococcus aureus, UniProt A0A0H2XJ46). The experiment in a line: [3H]Neu5Ac uptake in proteoliposomes, SaSiaT. The conditions noted are these: for type of inhibition: SaSiaT, Lineweaver–Burk plot. As for the experimental part:
To gain further insights into the molecular mechanisms, we investigated the direct effects of compounds 3e and 3f on the transport activity in proteoliposomes reconstituted with PmSiaT and SaSiaT. A kinetic analysis was performed by measuring the concentration-dependent uptake of [^3H]Neu5Ac in the presence of two different concentrations of the inhibitors 3f (Figure 5a,c) or 3e (Figure 5b,d).
Figure 5 Kinetic analysis of the inhibition of recombinant SiaT from P. mirabilis (A,B) and S. aureus (C,D) reconstituted in proteoliposomes and [^3H]Neu5Ac efflux in proteoliposomes (E,F). (a–d) Data were plotted according to Lineweaver–Burk as a reciprocal transport rate vs reciprocal Neu5Ac concentration. The transport rate was measured, in 5 min, by adding [^3H] Neu5Ac at the indicated concentrations to proteoliposomes containing 20 mM K^+-gluconate in the presence of valinomycin as described in the Supporting Information. [(A,B) P. mirabilis SiaT]; (A) compound 3f 0.25 μM (●) or 0.75 μM (□) was added in comparison to samples without inhibitor (○). (B) Compound 3e 12 μM (●) or 40 μM (□) was added in comparison to samples without an inhibitor (○). [(C,D) S. aureus SiaT]. (C) Compound 3f 80 μM (●) or 200 μM (□) was added in comparison to samples without an inhibitor (○). (D) Compound 3e 5 μM (●) or 12 μM (□) was added in comparison to samples without an inhibitor (○). Results are mean ± s.d. from four independent experiments (n = 4). […] Data are calculated as the percent of residual activity with respect to the control sample (efflux time zero). The results are the means ± s.d. of three independent experiments.
The purified SiaT from P. mirabilis and S. aureus was reconstituted by using the detergent removal procedure with the batchwise method previously pointed out.[16],[21] In brief, 2.5 μg or 5 μg of P. mirabilis and S. aureus SiaT, respectively, were mixed with 120 μL 10% C12E8, 100 μL of 10% egg yolk phospholipids (w/v, in the form of sonicated liposomes as previously described),[43] […]
For uptake experiments, 600 μL of proteoliposomes were loaded onto a Sephadex G-75 column (0.7 cm diameter × 15 cm height), pre-equilibrated with 20 mM Hepes Tris pH 7.0 with 40 mM sucrose to balance the internal osmolarity. […] For kinetic measurement, the initial transport rate was measured by stopping the reaction after 5 min, that is, within the initial linear range of [^3H]-Neu5Ac uptake into the proteoliposomes previously described. […] In both uptake and efflux experiments, the transport assay was terminated by loading each proteoliposome sample (100 μL) on a Sephadex G-75 column (0.6 cm diameter × 8 cm height) to remove the external radioactivity. Proteoliposomes were eluted with 1 mL of 50 mM NaCl and collected in a 4 mL of scintillation mixture, vortexed and counted.

Another assay deals with SaSiaT (Staphylococcus aureus, UniProt A0A0H2XJ46). The experiment in a line: [3H]Neu5Ac efflux in proteoliposomes, SaSiaT. The conditions noted are these: 0.1 mM external compound. The assay is classed as biochemical. The protocol:
Figure 5 Kinetic analysis of the inhibition of recombinant SiaT from P. mirabilis (A,B) and S. aureus (C,D) reconstituted in proteoliposomes and [^3H]Neu5Ac efflux in proteoliposomes (E,F). (a–d) Data were plotted according to Lineweaver–Burk as a reciprocal transport rate vs reciprocal Neu5Ac concentration. The transport rate was measured, in 5 min, by adding [^3H] Neu5Ac at the indicated concentrations to proteoliposomes containing 20 mM K^+-gluconate in the presence of valinomycin as described in the Supporting Information. [(A,B) P. mirabilis SiaT]; (A) compound 3f 0.25 μM (●) or 0.75 μM (□) was added in comparison to samples without inhibitor (○). […] Data are calculated as the percent of residual activity with respect to the control sample (efflux time zero). […]
For uptake experiments, 600 μL of proteoliposomes were loaded onto a Sephadex G-75 column (0.7 cm diameter × 15 cm height), pre-equilibrated with 20 mM Hepes Tris pH 7.0 with 40 mM sucrose to balance the internal osmolarity. […] For kinetic measurement, the initial transport rate was measured by stopping the reaction after 5 min, that is, within the initial linear range of [^3H]-Neu5Ac uptake into the proteoliposomes previously described. […] Proteoliposomes were eluted with 1 mL of 50 mM NaCl and collected in a 4 mL of scintillation mixture, vortexed and counted.

Results on 2 molecules are retold here after article PMC9295122, “Sialic Acid Derivatives Inhibit SiaT Transporters and Delay Bacterial Growth” (ACS Chemical Biology, 2022).

A word on the Ki: it is a measure of affinity in units of concentration, obtained from inhibition or displacement. A high value points to lower affinity.

SiaT from S. aureus, sequence (A0A0H2XJ46 entry or part of it): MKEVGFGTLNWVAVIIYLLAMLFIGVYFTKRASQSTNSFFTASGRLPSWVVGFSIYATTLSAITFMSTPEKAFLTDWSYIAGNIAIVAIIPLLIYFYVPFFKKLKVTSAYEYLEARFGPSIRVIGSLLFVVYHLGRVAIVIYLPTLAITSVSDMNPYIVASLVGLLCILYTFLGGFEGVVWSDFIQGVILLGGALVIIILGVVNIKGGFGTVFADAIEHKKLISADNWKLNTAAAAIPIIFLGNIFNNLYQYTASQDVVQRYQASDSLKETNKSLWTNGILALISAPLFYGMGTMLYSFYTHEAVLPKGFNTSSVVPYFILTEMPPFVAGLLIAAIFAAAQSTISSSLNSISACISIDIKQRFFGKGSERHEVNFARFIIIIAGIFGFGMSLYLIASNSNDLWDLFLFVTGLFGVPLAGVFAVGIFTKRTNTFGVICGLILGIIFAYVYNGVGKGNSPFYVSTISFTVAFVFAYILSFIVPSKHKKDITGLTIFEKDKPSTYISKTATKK
SaSiaT, sequence (A0A0H2XJ46 entry or part of it): as above

Take `CC(=O)NC1C(OCc2cc(F)cc(F)c2)CC(O)(C(=O)O)OC1C(O)C(O)CO` (stereo not drawn) [Compound 3e]: at SiaT from S. aureus, the Ki amounted to 2.8 ± 0.5 µM and the type of inhibition entry is given as “competitive inhibitors”. Further, the “[3H]Neu5Ac efflux induced” value at SaSiaT was “to the same extent as Neu5Ac”.

`CC(=O)NC1C(OCc2cc(Br)cc(Br)c2)CC(O)(C(=O)O)OC1C(O)C(O)CO` (stereo not drawn) [Compound 3f]: at SiaT from S. aureus, the Ki was determined as 53.6 ± 11.1 µM and the type of inhibition entry is “competitive inhibitors”. The “[3H]Neu5Ac efflux induced” value at SaSiaT is “negligible”.
